Reference: ChEMBL document CHEMBL1138161, “Structure-activity relationships of alpha-amino acid ligands for the alpha2delta subunit of voltage-gated calcium channels” (Bioorg Med Chem Lett, 2006)

Key:
Rattus norvegicus [1] = test: Potency against persistent inflammatory pain in orally dosed rat CFA model; assay type: functional; conditions: po
[2] = Concentration in rat brain after 0.75 h at 100 umol/kg, po; assay type: ADME, organism-based; conditions: read-out: Drug uptake
Rattus norvegicus [3] = test: Maximum efficacy in rat CFA model at 300 umol/kg; assay type: functional

| Structure (SMILES) | ED50 (Rattus norvegicus [1]) | concentration at 0.75 h [2] | Efficacy (Rattus norvegicus [3]) |
| --- | --- | --- | --- |
| NC(CCSCc1ccc(Br)cc1)C(=O)O (stereo not given) | > 300 µmol/kg | – | – |
| NC(C(=O)O)c1cccc(Cl)c1 (stereo not given) | – | 1760 ng/g | 64% |
| N[C@H](C(=O)O)c1ccccc1 | 100 µmol/kg | 6300 ng/g | – |
| N[C@@H](CCSCc1ccccc1)C(=O)O | 120 µmol/kg | 430 ng/g | – |
| N[C@@H](CC1CCCCC1)C(=O)O | 200 µmol/kg | – | – |
| NCC1(CC(=O)O)CCCCC1 [GABAPENTIN] | 125 µmol/kg | 3410 ng/g | – |
